Laboratory results taken from ChEMBL document CHEMBL1201862, “PubChem BioAssay data set” (2004).
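Exposure lasted 48 hours, with cells grown in 96-well plates and compounds tested at five concentrations. GI50 marks 50% less growth.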 The source made the active and inactive calls. Cut-off read from the data, not from the text of the source: active = GI50 up to about 1.1 µM and inactive = higher.

Assays:
Test in all cases: growth of human tumour cells (NCI), 48 h
UACC-257 = tested on: UACC-257
SF-295 = tested on: SF-295
NCI/ADR-RES = tested on: NCI/ADR-RES
MOLT-4 = tested on: MOLT-4
LOX IMVI = tested on: LOX IMVI
CAKI-1 = tested on: CAKI-1
HCT-116 = tested on: HCT-116
A549 = tested on: A549
SK-OV-3 = tested on: SK-OV-3
SR = tested on: SR
SNB-75 = tested on: SNB-75
HOP-92 = tested on: HOP-92
SN12C = tested on: SN12C
Hs-578T = tested on: Hs-578T
MDA-MB-435 = tested on: MDA-MB-435
HT-29 = tested on: HT-29
OVCAR-8 = tested on: OVCAR-8
NCI-H23 = tested on: NCI-H23
IGROV-1 = tested on: IGROV-1
A498 = tested on: A498

SMILES | GI50 (UACC-257) | GI50 (SF-295) | GI50 (NCI/ADR-RES) | GI50 (MOLT-4) | GI50 (LOX IMVI) | GI50 (CAKI-1) | GI50 (HCT-116) | GI50 (A549) | GI50 (SK-OV-3) | GI50 (SR) | GI50 (SNB-75) | GI50 (HOP-92) | GI50 (SN12C) | GI50 (Hs-578T) | GI50 (MDA-MB-435) | GI50 (HT-29) | GI50 (OVCAR-8) | GI50 (NCI-H23) | GI50 (IGROV-1) | GI50 (A498)
Cc1nc(N/N=C/c2ccccc2Cl)[nH]c(=O)c1CCO | > 100 µM (inactive) | 25.2 µM (inactive) | 61.1 µM (inactive) | > 100 µM (inactive) | > 100 µM (inactive) | > 10 µM (inactive) | 38.8 µM (inactive) | > 100 µM (inactive) | 23.1 µM (inactive) | > 100 µM (inactive) | 17.2 µM (inactive) | 21.5 µM (inactive) | 47.4 µM (inactive) | 29.4 µM (inactive) | > 100 µM (inactive) | > 100 µM (inactive) | 22 µM (inactive) | 35.8 µM (inactive) | 34 µM (inactive) | 
COC(=O)C1CC2C=CC1N(C(=O)OCc1ccccc1)C2 (centres undefined) | > 100 µM (inactive) | > 100 µM (inactive) | > 100 µM (inactive) | 81.3 µM (inactive) | > 100 µM (inactive) | > 100 µM (inactive) | > 100 µM (inactive) | > 100 µM (inactive) | > 100 µM (inactive) | 59.3 µM (inactive) | > 100 µM (inactive) |  | > 100 µM (inactive) | > 100 µM (inactive) | > 100 µM (inactive) | > 100 µM (inactive) | > 100 µM (inactive) | > 100 µM (inactive) | > 100 µM (inactive) | > 100 µM (inactive)
CCC(=O)N/S(=N/S(=O)(=O)c1ccccc1)C(Cl)(Cl)Cl (centres undefined) | > 100 µM (inactive) | > 100 µM (inactive) | > 100 µM (inactive) | > 100 µM (inactive) | > 100 µM (inactive) |  | > 100 µM (inactive) | > 100 µM (inactive) | > 100 µM (inactive) | > 100 µM (inactive) | > 100 µM (inactive) | > 100 µM (inactive) | > 100 µM (inactive) | > 100 µM (inactive) | > 100 µM (inactive) | > 100 µM (inactive) | > 100 µM (inactive) | > 100 µM (inactive) | > 100 µM (inactive) | > 100 µM (inactive)
CCOC(=O)C(C)(Cc1ccc(O)cn1)NC(=O)c1ccccc1 (centres undefined) | > 100 µM (inactive) | > 100 µM (inactive) | > 100 µM (inactive) | > 100 µM (inactive) | > 100 µM (inactive) | > 100 µM (inactive) | > 100 µM (inactive) | > 100 µM (inactive) | > 100 µM (inactive) | > 100 µM (inactive) | 80.4 µM (inactive) | 47 µM (inactive) |  | > 100 µM (inactive) | > 100 µM (inactive) | > 100 µM (inactive) | > 100 µM (inactive) | > 100 µM (inactive) | > 100 µM (inactive) | 
Cc1ccc(S(=O)(=O)n2ccc(-c3ccc4ccn(S(=O)(=O)c5ccc(C)cc5)c4c3)c2)cc1 | > 100 µM (inactive) | > 100 µM (inactive) | > 100 µM (inactive) | > 100 µM (inactive) | > 100 µM (inactive) | > 100 µM (inactive) | > 100 µM (inactive) | > 100 µM (inactive) | > 100 µM (inactive) | > 100 µM (inactive) | 94.2 µM (inactive) |  | > 100 µM (inactive) | 27.9 µM (inactive) | > 100 µM (inactive) | > 100 µM (inactive) | > 100 µM (inactive) | > 100 µM (inactive) | > 100 µM (inactive) | > 100 µM (inactive)
CN(C)c1ccc(/C=C(\C#N)c2nc(-c3cc4ccccc4oc3=O)cs2)cc1 | > 50 µM (inactive) | 10.6 µM (inactive) | 35.5 µM (inactive) | > 50 µM (inactive) | > 50 µM (inactive) | > 50 µM (inactive) | 20 µM (inactive) | > 50 µM (inactive) | 19.9 µM (inactive) | > 50 µM (inactive) | 1.72 µM (inactive) | 5.12 µM (inactive) | > 50 µM (inactive) | 13.7 µM (inactive) | > 50 µM (inactive) | > 50 µM (inactive) | 20.3 µM (inactive) |  | 15.4 µM (inactive) | 
CC(N/N=C(\S)N1CCN(c2ccccn2)CC1)c1cccc[n+]1[O-] (centres undefined) | 30.9 µM (inactive) | 12.3 µM (inactive) | 2.9 µM (inactive) | 2.58 µM (inactive) | 8.17 µM (inactive) | 14.2 µM (inactive) | 2.82 µM (inactive) | 8.65 µM (inactive) |  | 4.58 µM (inactive) | 48.6 µM (inactive) | 20.5 µM (inactive) | 23.6 µM (inactive) | 85.7 µM (inactive) | 25.3 µM (inactive) | 0.661 µM (active) | 6.9 µM (inactive) | 28.2 µM (inactive) | 43.8 µM (inactive) | 
COC1CC(NC(=O)C(F)(F)F)C(OC(C)=O)C(C)O1 (centres undefined) | > 100 µM (inactive) | > 100 µM (inactive) | > 100 µM (inactive) | > 100 µM (inactive) | > 100 µM (inactive) | > 100 µM (inactive) | > 100 µM (inactive) | > 100 µM (inactive) | > 100 µM (inactive) | > 100 µM (inactive) | > 100 µM (inactive) | 72.1 µM (inactive) | > 100 µM (inactive) | > 100 µM (inactive) | > 100 µM (inactive) | > 100 µM (inactive) | > 100 µM (inactive) | > 100 µM (inactive) | > 100 µM (inactive) | 
CCCCCCOP(=O)(OCCCCCC)OC(C(=O)OC)C(F)(F)F (centres undefined) | > 100 µM (inactive) | > 100 µM (inactive) | > 100 µM (inactive) | > 100 µM (inactive) | > 100 µM (inactive) | > 100 µM (inactive) | > 100 µM (inactive) | > 100 µM (inactive) | > 100 µM (inactive) | > 100 µM (inactive) | > 100 µM (inactive) | > 100 µM (inactive) | > 100 µM (inactive) | > 100 µM (inactive) | > 100 µM (inactive) | > 100 µM (inactive) | > 100 µM (inactive) | > 100 µM (inactive) | > 100 µM (inactive) | 
COc1ccc(-c2c3c(n(C4OC(CO)C(O)C(O)C4O)c(=S)c2C#N)CCC3)cc1 (centres undefined) | > 100 µM (inactive) | 31.9 µM (inactive) | > 100 µM (inactive) | 28.8 µM (inactive) | 42.1 µM (inactive) | > 100 µM (inactive) | 49.2 µM (inactive) | 68.9 µM (inactive) | 91.4 µM (inactive) | 38.4 µM (inactive) | 59.4 µM (inactive) | 28.6 µM (inactive) | 37 µM (inactive) | 38.7 µM (inactive) | 33.3 µM (inactive) | 40.1 µM (inactive) |  | 28.7 µM (inactive) | 48.6 µM (inactive) | 
COc1ccc(OC)c2c(=O)cc(-c3ccccc3)[nH]c12 | > 100 µM (inactive) | > 100 µM (inactive) | > 100 µM (inactive) | > 100 µM (inactive) | > 100 µM (inactive) |  | > 100 µM (inactive) | > 100 µM (inactive) | > 100 µM (inactive) | > 100 µM (inactive) | 93.3 µM (inactive) |  | > 100 µM (inactive) | > 100 µM (inactive) | > 100 µM (inactive) | > 100 µM (inactive) | > 100 µM (inactive) | > 100 µM (inactive) | > 100 µM (inactive) | > 100 µM (inactive)
